Assay results taken from ChEMBL document CHEMBL1201862, “PubChem BioAssay data set” (2004).
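48-hour exposure; five concentrations; linearly interpolated endpoints. At the GI50, growth is halved.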 The source made the active and inactive calls. Cut-off read from the data, not from the text of the source: active = GI50 up to about 1.1 µM and inactive = higher.

Assays:
Test in all cases: DTP human tumour cell line panel, 48 h
786-0 = test system: 786-0
A498 = test system: A498
A549 = test system: A549
ACHN = test system: ACHN
BT-549 = test system: BT-549
CAKI-1 = test system: CAKI-1
CCRF-CEM = test system: CCRF-CEM
COLO 205 = test system: COLO 205
DU-145 = test system: DU-145
EKVX = test system: EKVX
HCC 2998 = test system: HCC 2998
HCT-116 = test system: HCT-116
HCT-15 = test system: HCT-15
HL-60 = test system: HL-60
HOP-62 = test system: HOP-62
HOP-92 = test system: HOP-92
HT-29 = test system: HT-29
Hs-578T = test system: Hs-578T
IGROV-1 = test system: IGROV-1
K562 = test system: K562
KM12 = test system: KM12
LOX IMVI = test system: LOX IMVI
M14 = test system: M14
MCF7 = test system: MCF7
MDA-MB-231 = test system: MDA-MB-231
MDA-MB-435 = test system: MDA-MB-435
MDA-N = test system: MDA-N
MOLT-4 = test system: MOLT-4
Malme-3M = test system: Malme-3M
NCI-H226 = test system: NCI-H226
NCI-H23 = test system: NCI-H23
NCI-H460 = test system: NCI-H460
NCI-H522 = test system: NCI-H522
NCI/ADR-RES = test system: NCI/ADR-RES
OVCAR-3 = test system: OVCAR-3
OVCAR-4 = test system: OVCAR-4
OVCAR-5 = test system: OVCAR-5
OVCAR-8 = test system: OVCAR-8
PC-3 = test system: PC-3
RPMI-8226 = test system: RPMI-8226
RXF 393 = test system: RXF 393
SF-268 = test system: SF-268
SF-295 = test system: SF-295
SK-MEL-28 = test system: SK-MEL-28
SK-MEL-5 = test system: SK-MEL-5
SK-OV-3 = test system: SK-OV-3
SN12C = test system: SN12C
SNB-19 = test system: SNB-19
SNB-75 = test system: SNB-75
SR = test system: SR
SW-620 = test system: SW-620
T47D = test system: T47D
TK-10 = test system: TK-10
U-251 = test system: U-251
UACC-62 = test system: UACC-62
UO-31 = test system: UO-31
SF-539 = test system: SF-539
SK-MEL-2 = test system: SK-MEL-2
UACC-257 = test system: UACC-257

O=C1CN(C(=O)C2CCCN2C(=O)C2CCCN2)C(=O)CN1 (stereo unspecified)
GI50 (786-0): > 100 µM (inactive) | GI50 (A498): 55.2 µM (inactive) | GI50 (A549): > 100 µM (inactive) | GI50 (ACHN): > 100 µM (inactive) | GI50 (BT-549): > 100 µM (inactive) | GI50 (CAKI-1): > 100 µM (inactive) | GI50 (CCRF-CEM): > 100 µM (inactive) | GI50 (COLO 205): > 100 µM (inactive) | GI50 (DU-145): > 100 µM (inactive) | GI50 (EKVX): > 100 µM (inactive) | GI50 (HCC 2998): > 100 µM (inactive) | GI50 (HCT-116): > 100 µM (inactive) | GI50 (HCT-15): > 100 µM | GI50 (HL-60): > 100 µM (inactive) | GI50 (HOP-62): > 100 µM (inactive) | GI50 (HOP-92): > 100 µM (inactive) | GI50 (HT-29): > 100 µM (inactive) | GI50 (Hs-578T): > 100 µM (inactive) | GI50 (IGROV-1): > 100 µM (inactive) | GI50 (K562): > 100 µM (inactive) | GI50 (KM12): > 100 µM (inactive) | GI50 (LOX IMVI): > 100 µM (inactive) | GI50 (M14): > 100 µM (inactive) | GI50 (MCF7): > 100 µM (inactive) | GI50 (MDA-MB-231): > 100 µM (inactive) | GI50 (MDA-MB-435): 36.8 µM (inactive) | GI50 (MDA-N): > 100 µM (inactive) | GI50 (MOLT-4): > 100 µM (inactive) | GI50 (Malme-3M): > 100 µM (inactive) | GI50 (NCI-H226): > 100 µM (inactive) | GI50 (NCI-H23): > 100 µM (inactive) | GI50 (NCI-H460): > 100 µM (inactive) | GI50 (NCI-H522): > 100 µM (inactive) | GI50 (NCI/ADR-RES): > 100 µM (inactive) | GI50 (OVCAR-3): > 100 µM (inactive) | GI50 (OVCAR-4): > 100 µM (inactive) | GI50 (OVCAR-5): > 100 µM (inactive) | GI50 (OVCAR-8): > 100 µM (inactive) | GI50 (PC-3): > 100 µM (inactive) | GI50 (RPMI-8226): > 100 µM (inactive) | GI50 (RXF 393): > 100 µM (inactive) | GI50 (SF-268): > 100 µM (inactive) | GI50 (SF-295): > 100 µM (inactive) | GI50 (SK-MEL-28): > 100 µM (inactive) | GI50 (SK-MEL-5): > 100 µM (inactive) | GI50 (SK-OV-3): > 100 µM (inactive) | GI50 (SN12C): > 100 µM (inactive) | GI50 (SNB-19): > 100 µM (inactive) | GI50 (SNB-75): > 100 µM (inactive) | GI50 (SR): > 100 µM (inactive) | GI50 (SW-620): > 100 µM (inactive) | GI50 (T47D): > 100 µM (inactive) | GI50 (TK-10): > 100 µM (inactive) | GI50 (U-251): > 100 µM (inactive) | GI50 (UACC-62): > 100 µM (inactive) | GI50 (UO-31): > 100 µM (inactive)

CCOP(=O)(OCC)/C(F)=C/c1ccccc1
GI50 (786-0): > 100 µM (inactive) | GI50 (A498): > 100 µM (inactive) | GI50 (A549): > 100 µM (inactive) | GI50 (ACHN): > 100 µM (inactive) | GI50 (BT-549): > 100 µM (inactive) | GI50 (CAKI-1): > 100 µM (inactive) | GI50 (CCRF-CEM): > 100 µM (inactive) | GI50 (COLO 205): > 100 µM (inactive) | GI50 (DU-145): > 100 µM (inactive) | GI50 (EKVX): > 100 µM (inactive) | GI50 (HCC 2998): > 100 µM (inactive) | GI50 (HCT-116): > 100 µM (inactive) | GI50 (HCT-15): > 100 µM | GI50 (HL-60): > 100 µM (inactive) | GI50 (HOP-62): > 100 µM (inactive) | GI50 (HOP-92): > 100 µM (inactive) | GI50 (HT-29): > 100 µM (inactive) | GI50 (Hs-578T): > 100 µM (inactive) | GI50 (IGROV-1): > 100 µM (inactive) | GI50 (K562): > 100 µM (inactive) | GI50 (KM12): > 100 µM (inactive) | GI50 (LOX IMVI): > 100 µM (inactive) | GI50 (M14): > 100 µM (inactive) | GI50 (MCF7): > 100 µM (inactive) | GI50 (MDA-MB-231): > 100 µM (inactive) | GI50 (MDA-MB-435): > 100 µM (inactive) | GI50 (MDA-N): > 100 µM (inactive) | GI50 (MOLT-4): > 100 µM (inactive) | GI50 (Malme-3M): > 100 µM (inactive) | GI50 (NCI-H23): > 100 µM (inactive) | GI50 (NCI-H460): > 100 µM (inactive) | GI50 (NCI-H522): > 100 µM (inactive) | GI50 (NCI/ADR-RES): > 100 µM (inactive) | GI50 (OVCAR-3): > 100 µM (inactive) | GI50 (OVCAR-4): > 100 µM (inactive) | GI50 (OVCAR-5): > 100 µM (inactive) | GI50 (OVCAR-8): > 100 µM (inactive) | GI50 (PC-3): > 100 µM (inactive) | GI50 (RPMI-8226): > 100 µM (inactive) | GI50 (RXF 393): > 100 µM (inactive) | GI50 (SF-268): > 100 µM (inactive) | GI50 (SF-295): > 100 µM (inactive) | GI50 (SF-539): > 100 µM (inactive) | GI50 (SK-MEL-28): > 100 µM (inactive) | GI50 (SK-MEL-2): > 100 µM (inactive) | GI50 (SK-MEL-5): > 100 µM (inactive) | GI50 (SK-OV-3): > 100 µM (inactive) | GI50 (SN12C): > 100 µM (inactive) | GI50 (SNB-19): > 100 µM (inactive) | GI50 (SNB-75): > 100 µM (inactive) | GI50 (SR): > 100 µM (inactive) | GI50 (SW-620): > 100 µM (inactive) | GI50 (T47D): > 100 µM (inactive) | GI50 (TK-10): > 100 µM (inactive) | GI50 (U-251): > 100 µM (inactive) | GI50 (UACC-257): > 100 µM (inactive) | GI50 (UACC-62): > 100 µM (inactive) | GI50 (UO-31): 95.9 µM (inactive)

CC(C)C(C/C=C1/CC(CO)(COC(=O)C2CCCCC2)OC1=O)C(C)C (stereo unspecified)
GI50 (786-0): 12.4 µM (inactive) | GI50 (A498): 20.4 µM (inactive) | GI50 (A549): 12.5 µM (inactive) | GI50 (ACHN): 13.3 µM (inactive) | GI50 (BT-549): 25.2 µM (inactive) | GI50 (CAKI-1): 15.2 µM (inactive) | GI50 (CCRF-CEM): 17.2 µM (inactive) | GI50 (COLO 205): 5.94 µM (inactive) | GI50 (DU-145): 13.2 µM (inactive) | GI50 (EKVX): 20 µM (inactive) | GI50 (HCC 2998): 26.1 µM (inactive) | GI50 (HCT-116): 17.5 µM (inactive) | GI50 (HCT-15): 21.6 µM | GI50 (HOP-62): 11.7 µM (inactive) | GI50 (HOP-92): 13.6 µM (inactive) | GI50 (HT-29): 27.9 µM (inactive) | GI50 (Hs-578T): 16.7 µM (inactive) | GI50 (IGROV-1): 19.1 µM (inactive) | GI50 (K562): 6.79 µM (inactive) | GI50 (KM12): 21.1 µM (inactive) | GI50 (LOX IMVI): 14.2 µM (inactive) | GI50 (M14): 17.3 µM (inactive) | GI50 (MCF7): 18.7 µM (inactive) | GI50 (MDA-MB-231): 17 µM (inactive) | GI50 (MDA-MB-435): 34.7 µM (inactive) | GI50 (MDA-N): 19.1 µM (inactive) | GI50 (MOLT-4): 17.8 µM (inactive) | GI50 (Malme-3M): 17.3 µM (inactive) | GI50 (NCI-H226): 21.4 µM (inactive) | GI50 (NCI-H23): 16.6 µM (inactive) | GI50 (NCI-H460): 20.2 µM (inactive) | GI50 (NCI-H522): 17.3 µM (inactive) | GI50 (NCI/ADR-RES): 21.3 µM (inactive) | GI50 (OVCAR-3): 18.5 µM (inactive) | GI50 (OVCAR-4): 19.8 µM (inactive) | GI50 (OVCAR-5): 18.7 µM (inactive) | GI50 (OVCAR-8): 17.7 µM (inactive) | GI50 (PC-3): 17.1 µM (inactive) | GI50 (RXF 393): 21.5 µM (inactive) | GI50 (SF-268): 17.6 µM (inactive) | GI50 (SF-295): 14.2 µM (inactive) | GI50 (SF-539): 14.2 µM (inactive) | GI50 (SK-MEL-28): 18.6 µM (inactive) | GI50 (SK-MEL-2): > 100 µM (inactive) | GI50 (SK-MEL-5): 18.3 µM (inactive) | GI50 (SK-OV-3): > 100 µM (inactive) | GI50 (SN12C): 16.8 µM (inactive) | GI50 (SNB-19): 15 µM (inactive) | GI50 (SNB-75): 13.8 µM (inactive) | GI50 (SR): 28 µM (inactive) | GI50 (SW-620): 22.3 µM (inactive) | GI50 (T47D): 21.3 µM (inactive) | GI50 (TK-10): 16.8 µM (inactive) | GI50 (U-251): 18.3 µM (inactive) | GI50 (UACC-257): 26.9 µM (inactive) | GI50 (UACC-62): 89.9 µM (inactive) | GI50 (UO-31): 17.7 µM (inactive)
